≈ marks a conversion by molar mass, not a printed value.
Legend:
[1] = tested on: Toxoplasma gondii tachyzoites; parameters: method as in PMID 30744161; conditions: ref [19], cited from earlier work; for IC50: inhibition of T. gondii tachyzoite proliferation, previous study; for SR (selectivity ratio): ratio of CC50 to IC50, previous study
[2] = tested on: Toxoplasma gondii RH strain tachyzoites (ATCC PRA 310); assay: Influence on T. gondii proliferation in Hs27 cells, [3H]-uracil incorporation assay; format: cell-based; conditions: for IC50: Toxoplasma gondii, HS27, 50% inhibition of T. gondii RH proliferation in vitro, Hs27 host cells, [3H]-uracil incorporation; for SR (selectivity ratio): ratio of CC50 (L929) to IC50 (T. gondii)
[3] = Cytotoxicity against L929 cells, MTT cell viability assay (ISO 10993-5:2009(E)); format: cell-based; conditions: mouse, L929 mouse fibroblast cells; for viability at 24 h, 5 µg/mL / viability at 24 h, 25 µg/mL / viability at 24 h, 50 µg/mL / viability at 24 h, 125 µg/mL / viability at 24 h, 250 µg/mL / viability at 24 h, 500 µg/mL / viability at 24 h, 1000 µg/mL: read-out: viability of L929 cells (% of viable cells); for CC50 at 24 h: 50% cell proliferation inhibition, L929 cells
Excerpt: Since T. gondii is an obligate intracellular parasite that requires invasion of mammalian host cells to proliferate, compounds that inhibit parasite growth might be toxic to host cells as well. Therefore, as an initial indicator for host cell toxicity, we firstly evaluated compounds 5–16 for their ability to inhibit the growth of mouse fibroblast (L929) cells line according to the international standards: ISO 10993-5:2009(E).
To calculate the reduction of viability compared to the untreated blank the equation was used: viability (%) = 100% × sample OD570 (the mean value of the measured optical density of the treated cells)/blank OD570 (the mean value of the measured optical density of the untreated cells). CC50—represents the concentration of tested compounds that was required for a 50% cell proliferation inhibition in vitro. The effect of the tested compounds on the cell lines was measured using MTT assay according to the international standard: ISO 10993-5:2009(E). CC50 values were determined based on the plotted curves using GraphPad Prism program (version 8.0.1).
Cell culture: the L929 mouse fibroblast (ATTC® CCL-1™) was routinely cultured in IMDM (Iscove’s Modified Dulbecco Medium, Biowest, Nuaille, France), supplemented with 10% HIFBS, 100 U/mL penicillin and 100 μg/mL streptomycin. Cells were trypsinized twice a week and seeded at a density of 1 × 10^6 per T25 cell culture flask and incubated for 24–48 h in a 37 °C and 10% CO2 to achieve a confluent monolayer.
Cell viability assay: Assays were performed according to international standards: ISO 10993-5:2009(E), Biological evaluation of medical devices, Part 5: Tests for in vitro cytotoxicity. Cell viability were evaluated using the tetrazolium salt [3-(4,5-dimethylthiazol-2-yl)-2,5-diphenyltetrazolium bromide] (Sigma) and mouse fibroblasts L929 cells. For this assay we used only the culture medium, RPMI 1640, without phenol red (Biowest) supplemented with 10% HIFBS, 2 mM L-glutamine (Sigma), 100 U/mL penicillin, 100 μg/mL streptomycin. Shortly after, a 1 × 10^4/well of L929 cells were placed into 96-well plates and incubated in 37 °C and 10% CO2. Afterwards, an old culture medium was replaced by 100 μL of compounds and drugs dilutions in culture medium and the cells were treated for 24 h. Moreover, cells were treated with a 4.0–0.03% concentration of DMSO and 1M NaOH as a compound and drugs solvent (data not shown). Then, 50 μL of 1 mg/mL of MTT solution in RPMI 1640 without phenol red was added to each well and incubated 2h (37 °C, 10% CO2). Next, cell culture medium was aspirated cautiously and 150 μL of DMSO was added to each well, the plates were gently mixed. Then 25 μL 0.1M glycine buffer (pH = 10.5) (Sigma) was added. The optical density at 570 nm on the ELISA reader (Multiskan EX, Labsystems, Vienna, VA, USA), was read. The results were expressed as a percentage of viability compared to untreated cells. All experiments were performed in triplicate. For comparison reasons, two compounds known from our previous studies (6 and 9) were included in the bioassay performed for compounds 5, 7, 8, 9–16.

[4] = Lipophilicity by HPLC (logkw extrapolation, OECD guideline); format: physicochemical; conditions: Phenomenex Synergi 4 µm Polar-RP column, methanol:water, calibration with seven standards
Method: HPLC experiments were performed using a chromatograph equipped with an Elite LaChrom L-2130 gradient pump, L-2455 DAD detector, L-2300 column oven, and L-2200 autosampler (Hitachi-Merck, Darmstadt, Germany). The tested samples were applied into the Phenomenex Synergi 4 µm Polar-RP chromatographic column (Phenomenex, Torrance, CA, USA) (150 mm length, 4.6 mm i.d.). Mobile phases were degassed using a built-in membrane degasser.
Chromatographic analysis: 5 µL of each sample (0.1% methanolic solutions) was applied into the chromatographic column and chromatograms were developed at a flow rate of 1.0 mL min^−1 in the isocratic mode using various concentrations of methanol in the binary polar mobile phase: methanol:water (40:60, 45:55, 50:50, 55:45, 60:40, 65:35, and 70:30 (v/v)) Chromatograms were detected at 254 nm. All experiments were repeated in triplicate, and the final results were their arithmetic mean. Dead time was measured for uracil (Calbiochem—Merck, Darmstadt, Germany). All the experiments were performed at ambient temperature.
The chromatographic lipophilicity parameter (logkw) for 5–16 was obtained by the extrapolation of the retention parameter logk to pure water, according to the equation: logk = logkw − S × φ(1) where logkw is the value of the retention factor of a substance in pure water, S is the slope of the regression curve, and φ is the concentration (v/v) of methanol in the mobile phase.
Subsequently, logPHPLC parameters for 5–16 were calculated according to OECD guidelines, based on the equation obtained for seven standards with known lipohilicity parameters (logPo/w): logPo/w = 1.0239(± 0.03)·logkw − 0.1541(± 0.08); n = 7; r = 0.9976; se = 0.08; F = 1047.8(2)

Cc1nc[nH]c1C(=O)NNC(=S)Nc1cccc([N+](=O)[O-])c1 [Compound 1]
IC50 [1]: 14.78 µg/mL (≈ 46.1 µM)
SR (selectivity ratio) [1]: 18 fold

Cc1nc[nH]c1C(=O)NNC(=S)Nc1ccc([N+](=O)[O-])cc1 [Compound 2]
IC50 [1]: 21.62 µg/mL (≈ 67.5 µM)
SR (selectivity ratio) [1]: 16 fold

Cc1nc[nH]c1C(=O)NNC(=S)Nc1cccc(Cl)c1 [Compound 3]
IC50 [1]: 25.70 µg/mL (≈ 83 µM)
SR (selectivity ratio) [1]: 10 fold

Cc1ccc(NC(=S)NNC(=O)c2[nH]cnc2C)cc1Cl [Compound 4]
IC50 [1]: 18.62 µg/mL (≈ 57.5 µM)
SR (selectivity ratio) [1]: 4 fold

Cc1nc[nH]c1C(=O)NNC(=S)Nc1ccccc1F [Compound 5]
IC50 [2]: ≥ 69 µg/mL
SR (selectivity ratio) [2]: 6.61
viability at 24 h, 5 µg/mL [3]: 98.1%
viability at 24 h, 25 µg/mL [3]: 97.3%
viability at 24 h, 50 µg/mL [3]: 74.8%
viability at 24 h, 125 µg/mL [3]: 87%
viability at 24 h, 250 µg/mL [3]: 69.3%
viability at 24 h, 500 µg/mL [3]: 64.1%
viability at 24 h, 1000 µg/mL [3]: 45.8%
CC50 at 24 h [3]: 455 µg/mL (≈ 1550 µM)
chromatographic logP [4]: 2.8

Cc1nc[nH]c1C(=O)NNC(=S)Nc1cccc(F)c1 [Compound 6]
IC50 [2]: ≥ 69 µg/mL
SR (selectivity ratio) [2]: 7.79
viability at 24 h, 5 µg/mL [3]: 96.3%
viability at 24 h, 25 µg/mL [3]: 97.3%
viability at 24 h, 50 µg/mL [3]: 75.4%
viability at 24 h, 125 µg/mL [3]: 64.8%
viability at 24 h, 250 µg/mL [3]: 62.4%
viability at 24 h, 500 µg/mL [3]: 52.3%
viability at 24 h, 1000 µg/mL [3]: 35.4%
CC50 at 24 h [3]: 885 µg/mL (≈ 3020 µM)
chromatographic logP [4]: 2.99

Cc1nc[nH]c1C(=O)NNC(=S)Nc1ccc(F)cc1 [Compound 7]
IC50 [2]: ≥ 69 µg/mL
SR (selectivity ratio) [2]: 8.86
viability at 24 h, 5 µg/mL [3]: 103%
viability at 24 h, 25 µg/mL [3]: 103%
viability at 24 h, 50 µg/mL [3]: 89.2%
viability at 24 h, 125 µg/mL [3]: 83.1%
viability at 24 h, 250 µg/mL [3]: 69.9%
viability at 24 h, 500 µg/mL [3]: 61.4%
viability at 24 h, 1000 µg/mL [3]: 48.7%
CC50 at 24 h [3]: 977 µg/mL (≈ 3330 µM)
chromatographic logP [4]: 2.8

Cc1nc[nH]c1C(=O)NNC(=S)Nc1cccc(Cl)c1 [Compound 9]
IC50 [2]: 24.1 µg/mL (≈ 78 µM)
SR (selectivity ratio) [2]: 11.30
viability at 24 h, 5 µg/mL [3]: 93.9%
viability at 24 h, 25 µg/mL [3]: 88.5%
viability at 24 h, 50 µg/mL [3]: 75.3%
viability at 24 h, 125 µg/mL [3]: 64.7%
viability at 24 h, 250 µg/mL [3]: 56.7%
viability at 24 h, 500 µg/mL [3]: 30.2%
viability at 24 h, 1000 µg/mL [3]: 8.47%
CC50 at 24 h [3]: 273 µg/mL (≈ 881 µM)
chromatographic logP [4]: 3.51

Cc1nc[nH]c1C(=O)NNC(=S)Nc1ccc(Cl)cc1 [Compound 10]
IC50 [2]: ≥ 69 µg/mL
SR (selectivity ratio) [2]: 3.15
viability at 24 h, 5 µg/mL [3]: 103%
viability at 24 h, 25 µg/mL [3]: 96.3%
viability at 24 h, 50 µg/mL [3]: 70.3%
viability at 24 h, 125 µg/mL [3]: 63.6%
viability at 24 h, 250 µg/mL [3]: 56.6%
viability at 24 h, 500 µg/mL [3]: 23.6%
viability at 24 h, 1000 µg/mL [3]: 13.6%
CC50 at 24 h [3]: 231 µg/mL (≈ 746 µM)
chromatographic logP [4]: 3.44

Cc1nc[nH]c1C(=O)NNC(=S)Nc1cccc(Br)c1 [Compound 12, 4-(3-Bromophenyl)-1-(4-methylimidazol-5-oyl)thiosemicarbazide]
IC50 [2]: 15.6 µg/mL (≈ 44.2 µM)
viability at 24 h, 5 µg/mL [3]: 95.3%
viability at 24 h, 25 µg/mL [3]: 89%
viability at 24 h, 50 µg/mL [3]: 74.4%
viability at 24 h, 125 µg/mL [3]: 65.7%
viability at 24 h, 250 µg/mL [3]: 56.8%
viability at 24 h, 500 µg/mL [3]: 20.2%
viability at 24 h, 1000 µg/mL [3]: 7.52%
CC50 at 24 h [3]: 238 µg/mL (≈ 671 µM)
chromatographic logP [4]: 3.71

Cc1nc[nH]c1C(=O)NNC(=S)Nc1ccc(Br)cc1 [Compound 13, 4-(4-Bromophenyl)-1-(4-methylimidazol-5-oyl)thiosemicarbazide]
IC50 [2]: 14.6 µg/mL (≈ 41.1 µM)
viability at 24 h, 5 µg/mL [3]: 93.5%
viability at 24 h, 25 µg/mL [3]: 82%
viability at 24 h, 50 µg/mL [3]: 64.1%
viability at 24 h, 125 µg/mL [3]: 56.6%
viability at 24 h, 250 µg/mL [3]: 51.1%
viability at 24 h, 500 µg/mL [3]: 42.1%
viability at 24 h, 1000 µg/mL [3]: 30.8%
CC50 at 24 h [3]: 224 µg/mL (≈ 631 µM)
chromatographic logP [4]: 3.64

Cc1nc[nH]c1C(=O)NNC(=S)Nc1ccccc1I [Compound 14, 4-(2-Iodophenyl)-1-(4-methylimidazol-5-oyl)thiosemicarbazide]
IC50 [2]: 20.3 µg/mL (≈ 50.6 µM)
viability at 24 h, 5 µg/mL [3]: 95.2%
viability at 24 h, 25 µg/mL [3]: 92.8%
viability at 24 h, 50 µg/mL [3]: 83.7%
viability at 24 h, 125 µg/mL [3]: 65.4%
viability at 24 h, 250 µg/mL [3]: 44.5%
viability at 24 h, 500 µg/mL [3]: 26.1%
viability at 24 h, 1000 µg/mL [3]: 25%
CC50 at 24 h [3]: 199 µg/mL (≈ 496 µM)
chromatographic logP [4]: 3.23

COc1cc(Cc2cnc(N)nc2N)cc(OC)c1OC [trimethoprim, 2,4-diamino-5-(3,4,5-trimethoxybenzyl)pyrimidine, reference compound]
IC50 [2]: 12.1 µg/mL (≈ 41.8 µM)
SR (selectivity ratio) [2]: >2.64
CC50 at 24 h [3]: > 32 µg/mL

Source: PMC6514996, “Discovery of Potent and Selective Halogen-Substituted Imidazole-Thiosemicarbazides for Inhibition of Toxoplasma gondii Growth In Vitro via Structure-Based Design” (Molecules, 2019)
